Source: patent US8815935B2, “Inhibitors of protein prenyltransferases” (The Regents of the University of California, priority 2008, dated 2014)

Assays:
GGTase-I = biological target: T1, GGTase-I (Rattus norvegicus, UniProt P53610+Q04631); assay: In vitro GGTase-I enzyme assay (IC50, kinetics); assay type: biochemical
T1 construct: purchased JENA BIOSCIENCE
In short: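 Rat GGTase-I (50 nM) with 0.5 μM [3H]-GGPP and 2 μM MBP-RhoA in Tris-HCl pH 7.5, MgCl2, ZnCl2, DTT, 2.5% DMSO, 10 min at 30 °C; radiolabel incorporation by TCA filter binding and scintillation. Kinetics: 5 min reactions varying GGPP or RhoA at fixed other components.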

FTase = biological target: T2, FTase (Rattus norvegicus, UniProt Q02293+Q04631); assay: In vitro FTase assay (K-Ras4B substrate, [3H]FPP); assay type: biochemical; conditions: P3-D9, P3-E5: concentration increased to 100 (unit not given)
T2 construct: purchased JENA BIOSCIENCE
From the text: To further characterize the pilot library, inhibitors of protein farnesyltransferase were identified. This was accomplished by using K-Ras4B as a substrate protein, tritiated farnesylpyrophosphate ([^3H]FPP) and protein farnesyltransferase. See Finegold, A. A., Johnson, D. I., Farnsworth, C. C., Gelb, M. H., Judd, S. R., Glomset, J. A. and Tamanoi, F. (1991) Protein geranylgeranyltransferase of Saccharomyces cerevisiae is specific for Cys-Xaa-Xaa-Leu motif and requires the CDC43 gene product but not the DPR1 gene product. Proc. Natl. Acad. Sci. USA 88, 4448-4452. […] On the other hand, the structure of the compounds P1-F11, P2-B7 and P2-E9 resemble those of GGTIs. The FTI P1-F11 resembles the GGTI P1-F10, while the FTI P2-B7 resembles the GGTI P2-C10. The FTI P2-E9 is similar to the GGTI P2-G3. Similarity of some GGTI and FTI compounds may point to common structural features between the two closely related enzymes. As described before, FTase and GGTase I have similar three-dimensional structures and a shared alpha subunit. On the other hand, FTase specific inhibitors may recognize a region(s) that is different between the two enzymes.
Examples 2-8 illustrate assays of bioactivity. These methods are applicable to the compounds of the present invention having the particular linkers and scaffolds described herein, to determine their activity. […] Varying concentrations of the two compounds were added to each enzyme reaction. The FTase (protein farnesyltransferase) assay was carried out using K-Ras4B as a substrate protein, FTase (JENA Bioscience, San Diego, Calif.) and [3H]farnesyl pyrophosphate. Incubation was for 30 min at 37° C.
GGTase-I and FTase activities were determined by following the incorporation of radiolabeled isoprenoid [^3H]-geranylgeranyl or [^3H]-farnesyl into substrate proteins. FTase or GGTase-I (50 nM) were used to initiate reactions containing 0.4 μM of [^3H]-FPP or 0.5 μM of [^3H]-GGPP and 2 μM of MBP-tagged substrates (K-Ras4B for FTase; RhoA for GGTase-I) in 20 μl of buffer {50 mM Tris-HCl (pH 7.5), 10 mM MgCl2, […] and 5 mM DTT}. Inhibitors were added at the indicated concentrations. The final DMSO concentration was 2.5% for all samples.
Reactions were carried out for 10 min at 30° C. The reaction mixture was spotted onto a filter paper, treated with 10% trichloroacetic acid (TCA) followed by ethanol and acetone washing. The filter was counted using a scintillation counter. Kinetic assays in which the GGPP concentration was varied employed fixed concentrations of GGTase-I and RhoA, and reactions were carried out for 5 min. Similarly, fixed concentrations of GGTase-I and GGPP were used when the amount of RhoA was varied.

[1] = biological target: GGTase I (K-Ras4B as substrate) (Homo sapiens, UniProt P49354+P53609); assay: GGTase I filter-binding assay, K-Ras4B as substrate (library screens); assay type: biochemical
Experimental: (§1) The pilot library was screened for inhibitors of protein geranylgeranyltransferase type I. Protein prenyltransferase assays were carried out by using filter binding. Two different substrates, RhoA and K-Ras4B, were used for the assay. RhoA ends with the CaaL motif and is an exclusive substrate for GGTase I, while K-Ras4B ends with the CaaX motif and is modified by both GGTase I and FTase.
(§2) In the assay, a fixed concentration of 100 μM was used and the results are plotted for the inhibition of RhoA (vertical axis) as well as for K-Ras4B (horizontal axis). […] They are 2,6-diaryl-N-tosyl-1,2,5,6-tetrahydropyridine-3-carboxylic acids, except P2-D5 that is missing an aryl substituent at C2.
The % activity of GGTase I was determined as follows: a working solution that contained each compound in DMSO at the concentration of 1 mM was prepared. The working solution was added to GGTase I reaction mixture so that the final concentration of the compound is 50 μM. GGTase I activity was assayed by incubating [^3H]GGPP with K-Ras4B or RhoA protein in the presence of GGTase I and examining radioactivity incorporated into the substrate protein by spotting onto a filter paper. After washing with TCA, ethanol and acetone, the radioactivity retained on the filter was determined by the use of a scintillation counter. GGTase I activity in the presence of DMSO was taken as a 100% value and the activity in the presence of the compound was shown as percent activity compared with the 100% value. […] For 6-aryl-4-mercapto-N-sulfonyl-piperidine-3-carboxylic acid 11 the 4-mercapto substituent appeared critical to endowing GGTase inhibitory activity. […] 4-Chlorobenzylthio substituent was the next best; 12 compounds out of 21 containing the 4-chlorobenzylthio moiety were active. 4-Benzylthio substituent was also good; 7 piperidines out of 21 bearing 4-benzylthio group were active. […] 19 imines (C15>C12=C41>C40>C01=C11>C05=C10=C30=C35=C37=C38>C02, C03, C04, C06, C39=C43) out of 21 appeared in the GGTIs. […] This corresponds to 47 6-aryl-4-mercapto-N-sulfonyl-piperidine-3-carboxylic acids out of 357 compounds.
A collection of 138 heterocycles was screened for their ability to inhibit the activity of human GGTase-I to geranylgeranylate K-Ras4B or RhoA. Purified GGTase-I was incubated with its substrate protein K-Ras4B or RhoA, [^3H]GGPP, and the 138 compounds. After 30 min, the degree of incorporation of tritiated geranylgeranyl groups was measured using a scintillation counter.

[2] = system: H-Ras farnesylation in NIH3T3 cells; assay: H-Ras mobility shift immunoblot in NIH3T3 cells; assay type: cell-based; conditions: 48 hours
Experimental: K562 cells were treated with modified compounds for 72 hours and then cell number was counted. IC50 values of cell viability relative to the DMSO were measured. […] Data represent the mean+/−S.D. of two measurements from two independent experiments. *, P<0.05 compared with the value for DMSO. […] Whole cell lysates from cells treated with DMSO, P5-H6, P61-A6, GGTI (GGTI-298), FTI (BMS-225975) or RabGGTI (P49-F6) for 48 hours were prepared and processed for immunoblot analysis using antibody against unprenylated form of Rap1 (C: upper panel), Total-Rap1 (C: middle panel), H-Ras (D: upper panel), Rab5b (E: upper panel) or actin (C, D, and E: lower panel). The immunoblots shown represent two independent experiments for each treatment.
This was examined by using a farnesylated protein H-Ras.

[3] = biological target: GGTase I (RhoA as substrate) (Homo sapiens, UniProt P49354+P53609); assay: GGTase I filter-binding assay, RhoA as substrate (library screens); assay type: biochemical; conditions: compound 50 μM, DMSO = 100%, smaller = better inhibition
Experimental: as §1, §2
The % activity of GGTase I was determined as follows: a working solution that contained each compound in DMSO at the concentration of 1 mM was prepared. The working solution was added to GGTase I reaction mixture so that the final concentration of the compound is 50 μM. GGTase I activity was assayed by incubating [^3H]GGPP with K-Ras4B or RhoA protein in the presence of GGTase I and examining radioactivity incorporated into the substrate protein by spotting onto a filter paper. After washing with TCA, ethanol and acetone, the radioactivity retained on the filter was determined by the use of a scintillation counter. GGTase I activity in the presence of DMSO was taken as a 100% value and the activity in the presence of the compound was shown as percent activity compared with the 100% value. […] For 6-aryl-4-mercapto-N-sulfonyl-piperidine-3-carboxylic acid 11 the 4-mercapto substituent appeared critical to endowing GGTase inhibitory activity. […] 4-Chlorobenzylthio substituent was the next best; 12 compounds out of 21 containing the 4-chlorobenzylthio moiety were active. […]
A collection of 138 heterocycles was screened for their ability to inhibit the activity of human GGTase-I to geranylgeranylate K-Ras4B or RhoA. […] After 30 min, the degree of incorporation of tritiated geranylgeranyl groups was measured using a scintillation counter.

| Structure (SMILES) | inhibition of GGTase I (FIG. 16 controls) (GGTase-I) | inhibition of FTase activity (FIG. 16) (FTase) | relative inhibition of RhoA-driven versus K-Ras4B-driven GGTase I activity ([1]; pilot screen 100 μM, library screen 50 μM) | mobility shift of H-Ras (protein farnesylation) [2] | % activity of GGTase I for RhoA in the presence of the compound [3] | % activity of GGTase I for K-Ras4B in the presence of the compound ([1]; compound 50 μM, DMSO = 100%, smaller = better inhibition, 50 µM) |
| --- | --- | --- | --- | --- | --- | --- |
| COC(=O)[C@H](CC(C)C)NC(=O)c1ccc(NC[C@@H](N)CS)cc1-c1cccc2ccccc12 [GGTI-298, reference compound] | inhibits GGTase I | little inhibition | inhibit RhoA-driven GGTase I activity slightly better than K-Ras4B-driven GGTase I activity | no such mobility shift | – | – |
| Cc1ccccc1S(=O)(=O)N1C(c2ccc(Cl)cc2)CC=C(C(=O)O)[C@@H]1c1ccccc1 (stereo partly drawn) [drawing 33] | – | – | – | – | 8.8% | 10.6% |
